“And” between values parts separate entries of the source, which are not always exact repeats. Identical values can stand only once. Toxic doses and inconclusive results are not listed.
Test system: BDF1 mice, P388 leukemia ip, median survival T/C
Assay: NCI In Vivo Anticancer Drug Screen. Data for tumor model P388 Leukemia (intraperitoneal) in B6D2F1 (BDF1) mice
Conditions: endpoint: median survival time, higher = longer survival
Summary of the method: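 Compound-treated tumour-bearing mice were compared with vehicle-treated controls. Survival was recorded, and the value is the treated-group measurement divided by the control-group measurement (T/C).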

[1] = dose: 100.0 mg/kg/injection, schedule: Q04DX003 (ip), vehicle: saline
[2] = dose: 200.0 mg/kg/injection, schedule: Q04DX003 (ip), vehicle: saline
[3] = dose: 400.0 mg/kg/injection, schedule: Q04DX003 (ip), vehicle: saline
[4] = dose: 100.0 mg/kg/injection, schedule: Q01DX001 (ip), vehicle: saline with Tween-80
[5] = dose: 200.0 mg/kg/injection, schedule: Q01DX001 (ip), vehicle: saline with Tween-80
[6] = dose: 12.5 mg/kg/injection, schedule: Q01DX009 (ip), vehicle: saline with Tween-80
[7] = dose: 25.0 mg/kg/injection, schedule: Q01DX009 (ip), vehicle: saline with Tween-80
[8] = dose: 50.0 mg/kg/injection, schedule: Q01DX009 (ip), vehicle: saline with Tween-80
[9] = dose: 100.0 mg/kg/injection, schedule: Q01DX009 (ip), vehicle: saline with Tween-80
[10] = dose: 100.0 mg/kg/injection, schedule: Q04DX003 (ip), vehicle: saline with Tween-80
[11] = dose: 200.0 mg/kg/injection, schedule: Q01DX009 (ip), vehicle: saline with Tween-80
[12] = dose: 200.0 mg/kg/injection, schedule: Q04DX003 (ip), vehicle: saline with Tween-80
[13] = dose: 400.0 mg/kg/injection, schedule: Q04DX003 (ip), vehicle: saline with Tween-80
[14] = dose: 100.0 mg/kg/injection, schedule: Q01DX009 (ip), vehicle: other
[15] = dose: 100.0 mg/kg/injection, schedule: Q04DX003 (ip), vehicle: other
[16] = dose: 200.0 mg/kg/injection, schedule: Q01DX009 (ip), vehicle: other
[17] = dose: 200.0 mg/kg/injection, schedule: Q04DX003 (ip), vehicle: other
[18] = dose: 400.0 mg/kg/injection, schedule: Q04DX003 (ip), vehicle: other

OC(C1CO1)C(O)C1CO1 (stereo unspecified)
T/C (dose: 1.0 mg/kg/injection, schedule: Q01DX009 (ip), vehicle: saline): 282 % of control
T/C (dose: 2.0 mg/kg/injection, schedule: Q01DX009 (ip), vehicle: saline): 168 % of control
T/C (dose: 2.5 mg/kg/injection, schedule: Q01DX009 (ip), vehicle: saline): 190 % of control
T/C (dose: 5.0 mg/kg/injection, schedule: Q01DX009 (ip), vehicle: saline): 260 % of control
T/C (dose: 6.7 mg/kg/injection, schedule: Q01DX001 (ip), vehicle: saline): 189 % of control
T/C (dose: 6.7 mg/kg/injection, schedule: Q04DX003 (ip), vehicle: saline): 250 % of control
T/C (dose: 10.0 mg/kg/injection, schedule: Q01DX001 (ip), vehicle: saline): 336 % of control and 209 % of control and 219 % of control
T/C (dose: 10.0 mg/kg/injection, schedule: Q01DX009 (ip), vehicle: saline): 110 % of control
T/C (dose: 10.0 mg/kg/injection, schedule: Q04DX003 (ip), vehicle: saline): 413 % of control
T/C (dose: 12.5 mg/kg/injection, schedule: Q01DX001 (ip), vehicle: saline): 231 % of control and 292 % of control and 333 % of control
T/C (dose: 12.5 mg/kg/injection, schedule: Q04DX003 (ip), vehicle: saline): 387 % of control
T/C (dose: 15.0 mg/kg/injection, schedule: Q01DX001 (ip), vehicle: saline): 280 % of control and 292 % of control and 318 % of control

O=C1C=C(C2CCCCC2)C(=O)C2CCCCC12 (stereo unspecified)
T/C [1]: 110 % of control
T/C [2]: 105 % of control
T/C [3]: 120 % of control

C=CC[NH-].C=CC[NH-].CC(=O)CC(C)=O.CC(=O)CC(C)=O.[Ni+2]
T/C (dose: 6.25 mg/kg/injection, schedule: Q04DX002 (ip), vehicle: saline): 107 % of control
T/C (dose: 12.5 mg/kg/injection, schedule: Q04DX002 (ip), vehicle: saline): 100 % of control
T/C (dose: 25.0 mg/kg/injection, schedule: Q04DX002 (ip), vehicle: saline): 117 % of control

[O-][n+]1c(-c2ccccc2)cn2ccccc21
T/C [4]: 105 % of control
T/C [5]: 98 % of control

COc1ccc(C(=O)C(C)Br)c(OCc2ccccc2)c1OC (stereo unspecified)
T/C [6]: 100 % of control
T/C [7]: 95 % of control
T/C [8]: 100 % of control
T/C [9]: 90 % of control
T/C [10]: 95 % of control
T/C [11]: 95 % of control
T/C [12]: 114 % of control
T/C [13]: 104 % of control

COC(OC)C1=C(Cl)C(Cl)=C(Cl)/C1=N\Nc1ccccc1
T/C [4]: 109 % of control
T/C [5]: 86 % of control

COc1cccc(C(=O)CC(O)(C(F)(F)F)C(F)(F)F)c1
T/C [14]: 91 % of control
T/C [15]: 100 % of control
T/C [16]: 95 % of control
T/C [17]: 100 % of control
T/C (dose: 400.0 mg/kg/injection, schedule: Q01DX009 (ip), vehicle: other): 104 % of control
T/C [18]: 100 % of control

CCOC(=O)/C(C#N)=C/N=c1ccccn1C
T/C (dose: 6.25 mg/kg/injection, schedule: Q04DX002 (ip), vehicle: saline with Tween-80): 101 % of control
T/C (dose: 12.5 mg/kg/injection, schedule: Q04DX002 (ip), vehicle: saline with Tween-80): 101 % of control
T/C (dose: 25.0 mg/kg/injection, schedule: Q04DX002 (ip), vehicle: saline with Tween-80): 101 % of control

C1CCC2(CC1)SSC1(CCCCC1)S2
T/C (dose: 50.0 mg/kg/injection, schedule: Q01DX009 (ip), vehicle: other): 104 % of control
T/C [14]: 100 % of control
T/C [16]: 95 % of control

CC(C)(C)c1ccc(S(=O)[O][Sn]([CH3])([CH3])[O]S(=O)c2ccc(C(C)(C)C)cc2)cc1 (stereo unspecified)
T/C (dose: 12.5 mg/kg/injection, schedule: Q01DX001 (ip), vehicle: Klucel (hydroxypropylcellulose) (HPC)): 110 % of control
T/C (dose: 25.0 mg/kg/injection, schedule: Q01DX001 (ip), vehicle: Klucel (hydroxypropylcellulose) (HPC)): 113 % of control
T/C (dose: 50.0 mg/kg/injection, schedule: Q01DX001 (ip), vehicle: Klucel (hydroxypropylcellulose) (HPC)): 116 % of control

CCOC(=O)CCSCC(C)(C)C(=O)OCC
T/C [1]: 90 % of control
T/C [2]: 100 % of control
T/C [3]: 95 % of control

COc1ccccc1OC(=O)Nc1ccccc1F
T/C [10]: 90 % of control
T/C [12]: 90 % of control
T/C [13]: 100 % of control

Clc1ccc(C(c2ccc(Cl)cc2)C(Cl)(Cl)Cl)cc1
T/C [6]: 102 % of control
T/C [7]: 102 % of control
T/C [8]: 88 % of control

CC(=O)c1cccc([N+](=O)[O-])c1
T/C [15]: 100 % of control
T/C [17]: 104 % of control
T/C [18]: 90 % of control

CC(=O)CC(OC(=O)c1cc([N+](=O)[O-])cc([N+](=O)[O-])c1)(C(F)(F)F)C(F)(F)F
T/C (dose: 6.25 mg/kg/injection, schedule: Q01DX009 (ip), vehicle: saline with Tween-80): 100 % of control
T/C [6]: 118 % of control
T/C [7]: 118 % of control

O=c1c2ccccc2[nH]c2ccc(Cl)cc12
T/C [9]: 97 % of control
T/C [11]: 98 % of control
T/C (dose: 400.0 mg/kg/injection, schedule: Q01DX009 (ip), vehicle: saline with Tween-80): 89 % of control

O=c1[nH]c(=O)c(C2OC(CO)C(O)C2O)co1 (stereo unspecified)
T/C (dose: 20.0 mg/kg/injection, schedule: Q04DX003 (ip), vehicle: saline with Tween-80): 100 % of control

CC(=O)OS(C)(=O)=O
T/C (dose: 20.0 mg/kg/injection, schedule: Q04DX003 (ip), vehicle: saline): 100 % of control
T/C (dose: 40.0 mg/kg/injection, schedule: Q04DX003 (ip), vehicle: saline): 95 % of control
T/C (dose: 80.0 mg/kg/injection, schedule: Q04DX003 (ip), vehicle: saline): 104 % of control
T/C [1]: 110 % of control

COc1ccc(Nc2nc(N)nc(CNc3ccc(Cl)cc3)n2)cc1
T/C (dose: 100.0 mg/kg/injection, schedule: Q04DX003 (ip), vehicle: saline sonified): 100 % of control
T/C (dose: 200.0 mg/kg/injection, schedule: Q04DX003 (ip), vehicle: saline sonified): 100 % of control
T/C (dose: 400.0 mg/kg/injection, schedule: Q04DX003 (ip), vehicle: saline sonified): 110 % of control

BrCC[N+]12CC[N+](CCBr)(CC1)C2
T/C [6]: 112 % of control
T/C [7]: 105 % of control
T/C (dose: 25.0 mg/kg/injection, schedule: Q04DX003 (ip), vehicle: water): 110 % of control
T/C (dose: 50.0 mg/kg/injection, schedule: Q04DX003 (ip), vehicle: water): 116 % of control
T/C (dose: 400.0 mg/kg/injection, schedule: Q04DX003 (ip), vehicle: water): 172 % of control

— PubChem BioAssay AID328 (DTP/NCI, 2004)
